Key:
MAO-A = target: T1, MAO-A (Homo sapiens, UniProt P21397); assay: Monoamine Oxidase-A Inhibitor Screening Kit (Merck, MAK295), fluorometric assay; type: biochemical; details: for inhibition at 1 µM: concentration 1 uM; for inhibition at 10 µM: concentration 10 uM; for inhibition at 100 µM: concentration 100 uM; for IC50: secondary screen, 10 concentrations from 100 µM, duplicate
T1 construct: purchased Merck MAK295
T1 sequence (P21397 1-527): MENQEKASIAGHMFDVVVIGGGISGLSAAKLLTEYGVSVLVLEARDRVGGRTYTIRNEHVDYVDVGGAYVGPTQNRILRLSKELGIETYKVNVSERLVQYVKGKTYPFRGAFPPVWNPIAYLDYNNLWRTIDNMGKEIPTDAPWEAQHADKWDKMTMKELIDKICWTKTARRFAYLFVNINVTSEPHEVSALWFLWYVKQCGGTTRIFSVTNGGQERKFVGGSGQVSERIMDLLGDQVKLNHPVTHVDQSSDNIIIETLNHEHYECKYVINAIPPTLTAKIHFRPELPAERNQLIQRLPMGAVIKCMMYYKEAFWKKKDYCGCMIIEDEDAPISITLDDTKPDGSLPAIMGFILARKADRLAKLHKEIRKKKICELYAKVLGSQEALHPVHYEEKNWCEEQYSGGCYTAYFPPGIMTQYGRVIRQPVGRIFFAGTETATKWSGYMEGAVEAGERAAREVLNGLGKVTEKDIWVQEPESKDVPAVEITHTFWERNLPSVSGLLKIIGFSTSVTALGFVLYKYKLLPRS
Protocol: (§1) The experimental details for determining IC50 are presented in Supporting Information B.
(§2) To evaluate the IC50 of inhibitors, two fluorometric assays were used: the Monoamine Oxidase-A Inhibitor Screening Kit and the Monoamine Oxidase-B Inhibitor Screening Kit (Merck), according to the manufacturer’s protocol. The Echo dose-response software was used to prepare the plates. The compounds were tested at 10 concentrations, starting from 100 µM with a dilution factor of 3.16. All compounds were tested in duplicate in a final concentration of 1% of DMSO. Using a Mantis Liquid Dispenser (Formulatrix), 12.5 µL of protein was added to each tested compound (final concentration of 56 nM) and incubated for 60 minutes at 25°C (MAO-A) or 60 minutes at 37°C (MAO-B). Subsequently, the enzymatic reaction was initiated by adding 10 µL of substrate per well, followed by incubation for 60 minutes at 25°C (MAO-A) or 60 minutes at 37°C (MAO-B). The fluorescence intensity was measured using a plate reader (BioTek Synergy H1) with the following settings: excitation at 535 nm and emission at 587 nm. The data were normalized against low control (assay buffer […]
(§3) (1 picture or pasted object on this page, not shown here) […]
(§4) containing substrate) and high control (protein and substrate). The results were presented as a percentage of inhibition. […]

MAO-B = target: T2, MAO-B (Homo sapiens, UniProt P27338); assay: Monoamine Oxidase-B Inhibitor Screening Kit (Merck, MAK296), fluorometric assay; type: biochemical; details: for inhibition at 1 µM: concentration 1 uM; for inhibition at 10 µM: concentration 10 uM; for inhibition at 100 µM: concentration 100 uM; for IC50: secondary screen, 10 concentrations from 100 µM, duplicate
T2 construct: purchased Merck MAK296
T2 sequence (P27338 1-520): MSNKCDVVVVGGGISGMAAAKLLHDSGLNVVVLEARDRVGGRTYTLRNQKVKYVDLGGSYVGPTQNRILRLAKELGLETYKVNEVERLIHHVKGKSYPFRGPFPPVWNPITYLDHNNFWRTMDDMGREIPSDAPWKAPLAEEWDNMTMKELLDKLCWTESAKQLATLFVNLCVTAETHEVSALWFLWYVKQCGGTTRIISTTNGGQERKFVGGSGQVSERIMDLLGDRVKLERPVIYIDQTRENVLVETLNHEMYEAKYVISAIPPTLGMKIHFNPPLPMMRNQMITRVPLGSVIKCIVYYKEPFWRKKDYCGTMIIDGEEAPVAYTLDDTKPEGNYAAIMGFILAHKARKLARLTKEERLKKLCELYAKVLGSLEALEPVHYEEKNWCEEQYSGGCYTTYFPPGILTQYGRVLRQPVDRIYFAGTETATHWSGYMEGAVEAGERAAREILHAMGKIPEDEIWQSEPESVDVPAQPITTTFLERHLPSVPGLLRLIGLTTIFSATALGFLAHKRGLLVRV
Protocol: as §1, §2, §3, §4

Row | inhibition at 1 µM (MAO-A) [%] | inhibition at 10 µM (MAO-A) [%] | inhibition at 100 µM (MAO-A) [%] | IC50 (MAO-A) [µM] | inhibition at 1 µM (MAO-B) [%] | inhibition at 10 µM (MAO-B) [%] | inhibition at 100 µM (MAO-B) [%] | IC50 (MAO-B) [µM] | Compound
1 | 80.5 | 93.7 | 97.8 | 0.6 | 0 | 0 | 27.7 | – | CC(=O)Nc1ccc2c(c1)-c1ccccc1C2=O [MolPort-001-824-101]
2 | 0 | 0 | 0 | – | 0 | 0 | 46.3 | – | COc1ccc(C2SCC(=O)N2NC(=O)COc2ccc3c(C)cc(=O)oc3c2)cc1 (stereo not shown) [MolPort-002-546-020]
3 | 4.19 | 0 | 43.5 | – | 59 | 81 | 97.3 | 0.46 | CC(=O)NCC1CN(c2ccc(N3CCOCC3)c(F)c2)C(=O)O1 (stereo not shown) [MolPort-002-744-025]
4 | – | 16.5 | 84.2 | 23.6 | 5.64 | 37.9 | 81.3 | 11.9 | Fc1ccc(-c2ccc3c(c2)[nH]c2ccncc23)cn1 [MolPort-044-831-708]
5 | 0 | 0 | 0 | – | 0 | 0 | 0 | – | Cc1nnc2c(Cc3ccccc3)nc3ccccc3n12 [Molport-002-872-748]
6 | 0 | 0 | 15.7 | – | 0 | 0 | 0 | – | O=C(Cn1c(=O)oc2ccccc21)Nc1nnc(SCc2ccccc2)s1 [MolPort-001-610-534]
7 | 0 | 0 | 0 | – | 0 | 0 | 0 | – | COc1ccc(C2=NN(C(C)=O)C(c3ccccc3)C2)c(O)c1 (stereo not shown) [MolPort-000-773-355]
8 | 0 | 0 | 0 | – | 0 | 0 | 0 | – | Cc1cc(=O)oc2cc(OCC(=O)N/N=C/c3ccccc3)ccc12 [MolPort-002-548-000]
9 | 7.2 | 26.1 | 7.8 | – | 0 | 32.5 | 84.4 | 32.4 | Clc1ccc(/C=N/c2ccc3[nH]ncc3c2)c(Cl)c1 [MolPort-002-945-866]
10 | 0 | 0 | 0 | – | 0 | 0 | 0 | – | Cc1ccc(/C=N/Nc2nc3ccccc3nc2Cc2ccccc2)cc1 [Molport-002-863-179]
11 | 0 | 17.7 | 84.1 | 31.9 | 11.9 | 30.3 | 105 | 2.32 | Cc1cc(=O)oc2c(C)c(OCc3nnc(S)n3-c3ccc(Br)cc3)ccc12 [MolPort-002-847-536]

The next lines start with the compound.

Row | Compound | inhibition at 1 µM (MAO-A) [%] | inhibition at 10 µM (MAO-A) [%] | inhibition at 100 µM (MAO-A) [%] | IC50 (MAO-A) [µM] | inhibition at 1 µM (MAO-B) [%] | inhibition at 10 µM (MAO-B) [%] | inhibition at 100 µM (MAO-B) [%] | IC50 (MAO-B) [µM]
12 | Cc1nc(Nc2ncc3c(n2)CC(C)CC3=O)nc2ccccc12 (stereo not shown) [MolPort-000-510-622] | 0 | 0 | 0 | – | 0 | 21 | 77.5 | –
13 | O=c1oc2cc(OCc3cccc(Cl)c3)ccc2c2c1CCC2 [MolPort-000-651-742] | 4.35 | 0 | 0 | – | 91.3 | 98.4 | 98 | 0.00976
14 | O=c1c(-c2ccccc2)coc2cc(O)cc(O)c12 [MolPort-003-665-835] | 0 | 0 | 0 | – | 0 | 39.8 | 87.3 | 2.83
15 | Cc1csc(N/N=C/c2cc(Cl)ccc2Cl)n1 [MolPort-000-660-156] | 10.8 | 24.3 | 46.7 | – | 3.45 | 0.34 | 39.5 | –
16 | CCc1ccc(Nc2ncc3c(n2)CC(C)CC3=O)cc1 (stereo not shown) [MolPort-000-511-281] | 0 | 0 | 0 | – | 40 | 83.7 | 96.4 | 0.0661
17 | O=C(Nc1ccc(Cl)cc1)C1=Cc2ccccc2OC1 [MolPort-000-686-585] | 0 | 0 | 0 | – | 0 | 51.7 | 91.2 | 10.3
18 | Cc1c(-c2ccccc2)c(=O)oc2cc(OS(=O)(=O)c3ccc(Br)cc3)ccc12 [MolPort-000-479-802] | 1.21 | 5.32 | 25.6 | – | 0 | 0 | 27.3 | –

Source: PMC12344758, “Qsarna: An Online Tool for Smart Chemical Space Navigation in Drug Design” (Journal of Chemical Information and Modeling, 2025)
